Assay results: PubChem BioAssay (NCI)
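Results reflect a 48-hour exposure of cells in 96-well plates to compound at five concentrations. Abbreviation: GI50, concentration required for 50% inhibition of growth. The concentration for full growth arrest is given as TGI.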

Assays:
Assay in all cases: inhibition of tumour cell growth, NCI panel, 48 h; in the data active = GI50 below about 0.43 µM; inactive = the rest
OVCAR-4 ovarian = tested on: OVCAR-4 ovarian
SNB-75 CNS = tested on: SNB-75 CNS
OVCAR-5 ovarian = tested on: OVCAR-5 ovarian
M14 melanoma = tested on: M14 melanoma
NCI-H226 lung = tested on: NCI-H226 lung
IGROV1 ovarian = tested on: IGROV1 ovarian
UACC-62 melanoma = tested on: UACC-62 melanoma
SK-MEL-2 melanoma = tested on: SK-MEL-2 melanoma
U251 CNS = tested on: U251 CNS
HCT-116 colon = tested on: HCT-116 colon
HCC-2998 colon = tested on: HCC-2998 colon
NCI-H23 lung = tested on: NCI-H23 lung
BT-549 breast = tested on: BT-549 breast
OVCAR-3 ovarian = tested on: OVCAR-3 ovarian
K-562 leukemia = tested on: K-562 leukemia
HL-60(TB) leukemia = tested on: HL-60(TB) leukemia
MDA-MB-435 = tested on: MDA-MB-435
HCT-15 colon = tested on: HCT-15 colon
SF-539 CNS = tested on: SF-539 CNS
MCF7 breast = tested on: MCF7 breast
PC-3 prostate = tested on: PC-3 prostate
COLO 205 colon = tested on: COLO 205 colon
UACC-257 melanoma = tested on: UACC-257 melanoma
NCI-H522 lung = tested on: NCI-H522 lung
RPMI-8226 leukemia = tested on: RPMI-8226 leukemia
ACHN renal = tested on: ACHN renal
SW-620 colon = tested on: SW-620 colon
SN12C renal = tested on: SN12C renal
SK-MEL-28 melanoma = tested on: SK-MEL-28 melanoma
OVCAR-8 ovarian = tested on: OVCAR-8 ovarian
HT29 colon = tested on: HT29 colon
SF-268 CNS = tested on: SF-268 CNS
SK-MEL-5 melanoma = tested on: SK-MEL-5 melanoma
NCI/ADR-RES ovarian = tested on: NCI/ADR-RES ovarian
EKVX NSCLC = tested on: EKVX NSCLC
CCRF-CEM leukemia = tested on: CCRF-CEM leukemia
MOLT-4 leukemia = tested on: MOLT-4 leukemia
A549 NSCLC = tested on: A549 NSCLC
A498 renal = tested on: A498 renal
TK-10 renal = tested on: TK-10 renal
MALME-3M melanoma = tested on: MALME-3M melanoma
HOP-92 NSCLC = tested on: HOP-92 NSCLC
RXF 393 renal = tested on: RXF 393 renal
KM12 colon = tested on: KM12 colon
NCI-H460 lung = tested on: NCI-H460 lung
HS 578T breast = tested on: HS 578T breast
CAKI-1 renal = tested on: CAKI-1 renal
DU-145 prostate = tested on: DU-145 prostate
786-0 renal = tested on: 786-0 renal
LOX IMVI melanoma = tested on: LOX IMVI melanoma
SK-OV-3 ovarian = tested on: SK-OV-3 ovarian
HOP-62 NSCLC = tested on: HOP-62 NSCLC
SF-295 CNS = tested on: SF-295 CNS

CCCC[C@@H](COC(=O)N(Cc1cccs1)Cc1cccs1)NC(=O)N[C@@H](CC(=O)OC)c1ccc2c(c1)OCO2
inactive: GI50 (OVCAR-4 ovarian) > 100 µM | GI50 (SNB-75 CNS) > 100 µM | GI50 (OVCAR-5 ovarian) > 100 µM | GI50 (M14 melanoma) > 100 µM | GI50 (NCI-H226 lung) > 100 µM | GI50 (IGROV1 ovarian) > 100 µM | GI50 (UACC-62 melanoma) > 100 µM | GI50 (SK-MEL-2 melanoma) > 100 µM | GI50 (U251 CNS) > 100 µM | GI50 (HCT-116 colon) > 100 µM | GI50 (HCC-2998 colon) > 100 µM | GI50 (NCI-H23 lung) > 100 µM | GI50 (BT-549 breast) > 100 µM | GI50 (OVCAR-3 ovarian) > 100 µM | GI50 (K-562 leukemia) 59.6 µM | GI50 (HL-60(TB) leukemia) > 100 µM | GI50 (MDA-MB-435) > 100 µM | GI50 (HCT-15 colon) > 100 µM | GI50 (SF-539 CNS) > 100 µM | GI50 (MCF7 breast) > 100 µM | GI50 (PC-3 prostate) 9.09 µM | GI50 (COLO 205 colon) > 100 µM | GI50 (UACC-257 melanoma) > 100 µM | GI50 (NCI-H522 lung) > 100 µM | GI50 (RPMI-8226 leukemia) 8.11 µM | GI50 (ACHN renal) > 100 µM | GI50 (SW-620 colon) > 100 µM | GI50 (SN12C renal) > 100 µM | GI50 (SK-MEL-28 melanoma) > 100 µM | GI50 (OVCAR-8 ovarian) > 100 µM | GI50 (HT29 colon) > 100 µM | GI50 (SF-268 CNS) > 100 µM | GI50 (SK-MEL-5 melanoma) > 100 µM | GI50 (NCI/ADR-RES ovarian) > 100 µM | GI50 (EKVX NSCLC) > 100 µM | GI50 (CCRF-CEM leukemia) > 100 µM | GI50 (MOLT-4 leukemia) 5.19 µM | GI50 (A549 NSCLC) 67.7 µM | GI50 (A498 renal) > 100 µM | GI50 (TK-10 renal) > 100 µM | GI50 (MALME-3M melanoma) > 100 µM | GI50 (HOP-92 NSCLC) > 100 µM | GI50 (RXF 393 renal) > 100 µM | GI50 (KM12 colon) > 100 µM | GI50 (NCI-H460 lung) > 100 µM | GI50 (HS 578T breast) > 100 µM | GI50 (CAKI-1 renal) > 100 µM | GI50 (DU-145 prostate) > 100 µM | GI50 (786-0 renal) > 100 µM | GI50 (LOX IMVI melanoma) > 100 µM | GI50 (SK-OV-3 ovarian) > 100 µM | GI50 (HOP-62 NSCLC) > 100 µM | GI50 (SF-295 CNS) > 100 µM
> 100 µM: TGI (OVCAR-4 ovarian) | TGI (SNB-75 CNS) | TGI (OVCAR-5 ovarian) | TGI (M14 melanoma) | TGI (NCI-H226 lung) | TGI (IGROV1 ovarian) | TGI (UACC-62 melanoma) | TGI (SK-MEL-2 melanoma) | TGI (U251 CNS) | TGI (HCT-116 colon) | TGI (HCC-2998 colon) | TGI (NCI-H23 lung) | TGI (BT-549 breast) | TGI (OVCAR-3 ovarian) | TGI (K-562 leukemia) | TGI (HL-60(TB) leukemia) | TGI (MDA-MB-435) | TGI (HCT-15 colon) | TGI (SF-539 CNS) | TGI (MCF7 breast) | TGI (PC-3 prostate) | TGI (COLO 205 colon) | TGI (UACC-257 melanoma) | TGI (NCI-H522 lung) | TGI (RPMI-8226 leukemia) | TGI (ACHN renal) | TGI (SW-620 colon) | TGI (SN12C renal) | TGI (SK-MEL-28 melanoma) | TGI (OVCAR-8 ovarian) | TGI (HT29 colon) | TGI (SF-268 CNS) | TGI (SK-MEL-5 melanoma) | TGI (NCI/ADR-RES ovarian) | TGI (EKVX NSCLC) | TGI (CCRF-CEM leukemia) | TGI (MOLT-4 leukemia) | TGI (A549 NSCLC) | TGI (A498 renal) | TGI (TK-10 renal) | TGI (MALME-3M melanoma) | TGI (HOP-92 NSCLC) | TGI (RXF 393 renal) | TGI (KM12 colon) | TGI (NCI-H460 lung) | TGI (HS 578T breast) | TGI (CAKI-1 renal) | TGI (DU-145 prostate) | TGI (786-0 renal) | TGI (LOX IMVI melanoma) | TGI (SK-OV-3 ovarian) | TGI (HOP-62 NSCLC) | TGI (SF-295 CNS)
